Data published in the supplement of paper PMC13207355.
Structures can show the parent of a compound that is named as a salt.

Experiments:
Settings in all cases: exposure time: 72 h
E13 [1] = patient-derived glioblastoma stem cells of classical subtype; assay: phenotypic distance (Euclidean, principal components) from DMSO controls (arbitrary units); higher = stronger morphological change
E34 [2] = patient-derived glioblastoma stem cells of proneural subtype; assay: as above
E31 [3] = patient-derived glioblastoma stem cells of proneural subtype; assay: as above
FT3469 [4] = normal neural stem cell line; assay: as above
E28 [5] = patient-derived glioblastoma stem cells of classical subtype; assay: as above
E57 [6] = patient-derived glioblastoma stem cells of mesenchymal subtype; assay: as above
E21 [7] = patient-derived glioblastoma stem cells of mesenchymal subtype; assay: as above
E13 [8] = assay: surviving fraction (nuclei count normalised to DMSO); higher = more cells surviving (less toxic)
E34 [9] = assay: as above
E31 [10] = assay: as above
FT3469 [11] = assay: as above
E28 [12] = assay: as above
E57 [13] = assay: as above
E21 [14] = assay: as above
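Wherever phenotypic distance (Euclidean, principal components) from DMSO controls is given: cell Painting imaging in 384-well plates, CellProfiler features reduced to at least 20 principal components, Euclidean distance versus same-plate DMSO vehicle wells (0.1% v/v), median over six images per well.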
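Wherever surviving fraction (nuclei count normalised to DMSO) is given: nuclei counted by high-content imaging of Hoechst-stained cells in laminin-coated 384-well plates, relative to 0.1% DMSO vehicle wells, with staurosporine as cell-death control.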

COC(=O)Nc1nc2cc(Sc3ccccc3)ccc2[nH]1 [Fenbendazole]
Settings | phenotypic distance | surviving fraction
E13 [1], 4.1 nM | 0.824 | –
E13 [1], 12.3 nM | 0.763 | –
E13 [1], 37 nM | 0.771 | –
E13 [1], 111.1 nM | 1.88 | –
E13 [1], 333.3 nM | 3.45 | –
E13 [1], 1000 nM | 6.64 | –
E13 [1], 3000 nM | 6.13 | –
E13 [8], 4.1 nM | – | 1.02
E13 [8], 12.3 nM | – | 1.07
E13 [8], 37 nM | – | 1.05
E13 [8], 111.1 nM | – | 0.86
E13 [8], 333.3 nM | – | 0.548
E13 [8], 1000 nM | – | 0.179
E13 [8], 3000 nM | – | 0.236
E21 [7], 4.1 nM | 0.689 | –
E21 [7], 12.3 nM | 0.58 | –
E21 [7], 37 nM | 1.03 | –
E21 [7], 111.1 nM | 1.63 | –
E21 [7], 333.3 nM | 2.19 | –
E21 [7], 1000 nM | 7.35 | –
E21 [7], 3000 nM | 5.94 | –
E21 [14], 4.1 nM | – | 1.07
E21 [14], 12.3 nM | – | 1.02
E21 [14], 37 nM | – | 0.982
E21 [14], 111.1 nM | – | 0.874
E21 [14], 333.3 nM | – | 0.941
E21 [14], 1000 nM | – | 0.105
E21 [14], 3000 nM | – | 0.122
E28 [5], 4.1 nM | 0.869 | –
E28 [5], 12.3 nM | 0.342 | –
E28 [5], 37 nM | 0.965 | –
E28 [5], 111.1 nM | 1.03 | –
E28 [5], 333.3 nM | 1.48 | –
E28 [5], 1000 nM | 3.39 | –
E28 [5], 3000 nM | 3.63 | –
E28 [12], 4.1 nM | – | 1
E28 [12], 12.3 nM | – | 1.09
E28 [12], 37 nM | – | 1.1
E28 [12], 111.1 nM | – | 0.927
E28 [12], 333.3 nM | – | 1.07
E28 [12], 1000 nM | – | 0.359
E28 [12], 3000 nM | – | 0.304
E31 [3], 4.1 nM | 0.332 | –
E31 [3], 12.3 nM | 0.747 | –
E31 [3], 37 nM | 0.989 | –
E31 [3], 111.1 nM | 1.13 | –
E31 [3], 333.3 nM | 1.96 | –
E31 [3], 1000 nM | 6.33 | –
E31 [3], 3000 nM | 5.86 | –
E31 [10], 4.1 nM | – | 1.12
E31 [10], 12.3 nM | – | 0.906
E31 [10], 37 nM | – | 0.836
E31 [10], 111.1 nM | – | 0.749
E31 [10], 333.3 nM | – | 0.526
E31 [10], 1000 nM | – | 0.0787
E31 [10], 3000 nM | – | 0.0818
E34 [2], 4.1 nM | 0.744 | –
E34 [2], 12.3 nM | 0.832 | –
E34 [2], 37 nM | 0.751 | –
E34 [2], 111.1 nM | 0.935 | –
E34 [2], 333.3 nM | 1.56 | –
E34 [2], 1000 nM | 4.45 | –
E34 [2], 3000 nM | 5.29 | –
E34 [9], 4.1 nM | – | 1.06
E34 [9], 12.3 nM | – | 0.988
E34 [9], 37 nM | – | 0.935
E34 [9], 111.1 nM | – | 1.01
E34 [9], 333.3 nM | – | 0.795
E34 [9], 1000 nM | – | 0.361
E34 [9], 3000 nM | – | 0.349
E57 [6], 4.1 nM | 0.515 | –
E57 [6], 12.3 nM | 0.484 | –
E57 [6], 37 nM | 1.23 | –
E57 [6], 111.1 nM | 1.6 | –
E57 [6], 333.3 nM | 2.13 | –
E57 [6], 1000 nM | 4.89 | –
E57 [6], 3000 nM | 4.66 | –
E57 [13], 4.1 nM | – | 1
E57 [13], 12.3 nM | – | 1.05
E57 [13], 37 nM | – | 1.06
E57 [13], 111.1 nM | – | 0.964
E57 [13], 333.3 nM | – | 0.841
E57 [13], 1000 nM | – | 0.0618
E57 [13], 3000 nM | – | 0.0799
FT3469 [4], 4.1 nM | 0.898 | –
FT3469 [4], 12.3 nM | 0.598 | –
FT3469 [4], 37 nM | 0.489 | –
FT3469 [4], 111.1 nM | 1.42 | –
FT3469 [4], 333.3 nM | 1.54 | –
FT3469 [4], 1000 nM | 2.9 | –
FT3469 [4], 3000 nM | 2.71 | –
FT3469 [11], 4.1 nM | – | 1.03
FT3469 [11], 12.3 nM | – | 1.1
FT3469 [11], 37 nM | – | 0.864
FT3469 [11], 111.1 nM | – | 1.02
FT3469 [11], 333.3 nM | – | 0.864
FT3469 [11], 1000 nM | – | 0.511
FT3469 [11], 3000 nM | – | 0.622

CC(NCCC(c1ccccc1)c1ccccc1)c1ccccc1 (stereo unspecified) [Fendiline hydrochloride]
Settings | phenotypic distance | surviving fraction
E13 [1], 4.1 nM | 1.49 | –
E13 [1], 12.3 nM | 0.566 | –
E13 [1], 37 nM | 0.415 | –
E13 [1], 111.1 nM | 1.15 | –
E13 [1], 333.3 nM | 0.412 | –
E13 [1], 1000 nM | 0.615 | –
E13 [1], 3000 nM | 1.21 | –
E13 [8], 4.1 nM | – | 0.853
E13 [8], 12.3 nM | – | 0.993
E13 [8], 37 nM | – | 0.984
E13 [8], 111.1 nM | – | 0.898
E13 [8], 333.3 nM | – | 1.03
E13 [8], 1000 nM | – | 1.1
E13 [8], 3000 nM | – | 0.976
E21 [7], 4.1 nM | 0.402 | –
E21 [7], 12.3 nM | 0.709 | –
E21 [7], 37 nM | 0.475 | –
E21 [7], 111.1 nM | 0.445 | –
E21 [7], 333.3 nM | 0.634 | –
E21 [7], 1000 nM | 0.668 | –
E21 [7], 3000 nM | 0.648 | –
E21 [14], 4.1 nM | – | 1.03
E21 [14], 12.3 nM | – | 0.876
E21 [14], 37 nM | – | 0.962
E21 [14], 111.1 nM | – | 0.95
E21 [14], 333.3 nM | – | 1.01
E21 [14], 1000 nM | – | 0.962
E21 [14], 3000 nM | – | 0.961
E28 [5], 4.1 nM | 0.507 | –
E28 [5], 12.3 nM | 0.605 | –
E28 [5], 37 nM | 0.415 | –
E28 [5], 111.1 nM | 0.773 | –
E28 [5], 333.3 nM | 0.762 | –
E28 [5], 1000 nM | 0.645 | –
E28 [5], 3000 nM | 0.861 | –
E28 [12], 4.1 nM | – | 0.897
E28 [12], 12.3 nM | – | 1.08
E28 [12], 37 nM | – | 0.956
E28 [12], 111.1 nM | – | 1.12
E28 [12], 333.3 nM | – | 0.967
E28 [12], 1000 nM | – | 1.08
E28 [12], 3000 nM | – | 1.04
E31 [3], 4.1 nM | 0.374 | –
E31 [3], 12.3 nM | 0.903 | –
E31 [3], 37 nM | 0.419 | –
E31 [3], 111.1 nM | 0.715 | –
E31 [3], 333.3 nM | 0.436 | –
E31 [3], 1000 nM | 0.581 | –
E31 [3], 3000 nM | 1.24 | –
E31 [10], 4.1 nM | – | 1.09
E31 [10], 12.3 nM | – | 0.954
E31 [10], 37 nM | – | 0.955
E31 [10], 111.1 nM | – | 1.02
E31 [10], 333.3 nM | – | 0.968
E31 [10], 1000 nM | – | 0.988
E31 [10], 3000 nM | – | 1.15
E34 [2], 4.1 nM | 0.542 | –
E34 [2], 12.3 nM | 0.85 | –
E34 [2], 37 nM | 0.586 | –
E34 [2], 111.1 nM | 0.878 | –
E34 [2], 333.3 nM | 0.354 | –
E34 [2], 1000 nM | 0.817 | –
E34 [2], 3000 nM | 0.823 | –
E34 [9], 4.1 nM | – | 1.02
E34 [9], 12.3 nM | – | 0.952
E34 [9], 37 nM | – | 0.969
E34 [9], 111.1 nM | – | 0.959
E34 [9], 333.3 nM | – | 1.07
E34 [9], 1000 nM | – | 0.954
E34 [9], 3000 nM | – | 1.09
E57 [6], 4.1 nM | 0.595 | –
E57 [6], 12.3 nM | 0.626 | –
E57 [6], 37 nM | 0.661 | –
E57 [6], 111.1 nM | 0.669 | –
E57 [6], 333.3 nM | 0.423 | –
E57 [6], 1000 nM | 0.376 | –
E57 [6], 3000 nM | 0.679 | –
E57 [13], 4.1 nM | – | 0.982
E57 [13], 12.3 nM | – | 1.03
E57 [13], 37 nM | – | 1.01
E57 [13], 111.1 nM | – | 1.08
E57 [13], 333.3 nM | – | 1.07
E57 [13], 1000 nM | – | 1.04
E57 [13], 3000 nM | – | 1.09
FT3469 [4], 4.1 nM | 0.761 | –
FT3469 [4], 12.3 nM | 0.264 | –
FT3469 [4], 37 nM | 0.282 | –
FT3469 [4], 111.1 nM | 0.794 | –
FT3469 [4], 333.3 nM | 0.524 | –
FT3469 [4], 1000 nM | 1.26 | –
FT3469 [4], 3000 nM | 0.835 | –
FT3469 [11], 4.1 nM | – | 0.944
FT3469 [11], 12.3 nM | – | 0.918
FT3469 [11], 37 nM | – | 0.939
FT3469 [11], 111.1 nM | – | 1.11
FT3469 [11], 333.3 nM | – | 0.92
FT3469 [11], 1000 nM | – | 1.28
FT3469 [11], 3000 nM | – | 0.989
